# Laboratory results taken from PMC3158291 (Journal of medicinal chemistry, 2011).
# How the values were obtained:
# [1] = Stability in mouse liver microsomes; type: in vitro ADME; settings: calculated from intrinsic clearance in mouse liver microsomes, method of ref 21
# [2] = In vivo pharmacokinetic study, intravenous 5mg/kg; settings: mice, intravenous injection at 5mg/kg
# [3] = system: Mycobacterium tuberculosis (Mtb), replicating; assay: Minimum Inhibitory Concentration; type: cell-based; settings: for Mtb MIC99 μM (±SD): replicating (aerobic) Mtb, average ± SD of multiple measurements; for MIC99: Mycobacterium tuberculosis, read-out: Mtb MIC99 μM (±SD)
# [4] = system: Mycobacterium tuberculosis (Mtb), non-replicating; assay: Minimum Anaerobicidal Concentration; type: cell-based; settings: non-replicating (anaerobic) Mtb; average ± SD of multiple measurements
Compound,Predicted hepatic extraction ratio [1],also measured
"O=[N+]([O-])c1cn2c(n1)OC[C@@H](NCc1ccc(OC(F)(F)F)c(F)c1)C2 [Compound 56a, (S)-N-(3-Fluoro-4-trifluoromethoxybenzyl)-2-nitro-6,7-dihydro-5H-imidazo[2,1-b][1,3]oxazin-6-amine]",72%,in vivo clearance [2]: low to moderate clearance; systemic exposure [2]: good systemic exposure
"O=[N+]([O-])c1cn2c(n1)OC[C@@H](NCc1ccc(OC(F)(F)F)cc1Oc1ccccc1)C2 [Compound 32d, (S)-2-Nitro-N-(2-phenoxy-4-trifluoromethoxybenzyl)-6,7-dihydro-5H-imidazo[2,1-b][1,3]oxazin-6-amine]",90%,–
"CC(C)N(Cc1ccc(OC(F)(F)F)cc1)[C@@H]1COc2nc([N+](=O)[O-])cn2C1 [Compound 5c, (S)-N-Isopropyl-2-nitro-N-(4-trifluoromethoxybenzyl)-6,7-dihydro-5H-imidazo[2,1-b][1,3]oxazin-6-amine]",95%,–
"O=[N+]([O-])c1cn2c(n1)OC[C@@H](NCc1ccc(OC(F)(F)F)cc1OC1CC1)C2 [Compound 32f, (S)-N-(2-Cyclopropoxy-4-trifluoromethoxybenzyl)-2-nitro-6,7-dihydro-5H-imidazo[2,1-b][1,3]oxazin-6-amine]",87%,–
"O=[N+]([O-])c1cn2c(n1)OC[C@@H](NCc1ccc(OC(F)(F)F)c(O)c1)C2 [Compound 56i, (S)-5-((2-Nitro-6,7-dihydro-5H-imidazo[2,1-b][1,3]oxazin-6-ylamino)methyl)-2-(trifluoromethoxy)-phenol]",–,in vivo clearance [2]: cleared more rapidly; systemic exposure [2]: low systemic exposure
"O=[N+]([O-])c1cn2c(n1)OC[C@@H](NCc1ccc(OC(F)(F)F)c(Oc3ccccc3)c1)C2 [Compound 56e, (S)-2-Nitro-N-(3-phenoxy-4-(trifluoromethoxy)benzyl)-6,7-dihydro-5H-imidazo[2,1-b][1,3]oxazin-6-amine]",87%,–
"CN(Cc1ccc(OC(F)(F)F)cc1)[C@@H]1COc2nc([N+](=O)[O-])cn2C1 [Compound 5a, (S)-N-Methyl-2-nitro-N-4-trifluoromethoxybenzyl-6,7-dihydro-5H-imidazo[2,1-b][1,3]oxazin-6-amine]",85%,–
"CCC(=O)N(Cc1ccc(OC(F)(F)F)cc1)[C@@H]1COc2nc([N+](=O)[O-])cn2C1 [Compound 4b, (S)-N-(2-Nitro-6,7-dihydro-5H-imidazo[2,1-b][1,3]oxazin-6-yl)-N-(4-trifluoromethoxybenzyl)-propionamide]",–,Mtb MIC99 μM (±SD) [3]: Insoluble
"O=[N+]([O-])c1cn2c(n1)OC[C@@H](NCc1ccc(OC(F)(F)F)cc1OCC1CC1)C2 [Compound 32e, (S)-N-(2-Cyclopropylmethoxy-4-trifluoromethoxybenzyl)-2-nitro-6,7-dihydro-5H-imidazo[2,1-b][1,3]oxazin-6-amine]",97%,–
"O=[N+]([O-])c1cn2c(n1)OC[C@@H](NCc1ccc(OC(F)(F)F)c(Cl)c1)C2 [Compound 56b, (S)-N-(3-Chloro-4-trifluoromethoxybenzyl)-2-nitro-6,7-dihydro-5H-imidazo[2,1-b][1,3]oxazin-6-amine]",–,in vivo clearance [2]: low to moderate clearance; systemic exposure [2]: good systemic exposure
"O=[N+]([O-])c1cn2c(n1)OC[C@@H](NCc1ccc(OC(F)(F)F)cc1Cl)C2 [Compound 41b, (S)-N-(2-Chloro-4-trifluoromethoxybenzyl)-2-nitro-6,7-dihydro-5H-imidazo[2,1-b][1,3]oxazin-6-amine]",75%,MIC99 [3]: 0.12 ± 0.05 µM
"CCCN(Cc1ccc(OC(F)(F)F)cc1)[C@@H]1COc2nc([N+](=O)[O-])cn2C1 [Compound 5b, (S)-2-Nitro-N-propyl-N-(4-trifluoromethoxybenzyl)-6,7-dihydro-5H-imidazo[2,1-b][1,3]oxazin-6-amine]",95%,–
"2−((S)−2−Nitro−6,7−dihydro−5H−imidazo[2,1−b][1,3]oxazin−6−ylamino)−2−(4−trifluoromethoxyphenyl)−ethanol [Compound 17i]",–,Mtb MIC99 μM (±SD) [3]: 0.13 ± 0.04 µM; Mtb MAC μM (±SD) [4]: 23 ± 6 µM
"O=[N+]([O-])c1cn2c(n1)OC[C@@H](NCc1ccc(OC(F)(F)F)cc1O)C2 [Compound 32g, (S)-2-((2-Nitro-6,7-dihydro-5H-imidazo[2,1-b][1,3]oxazin-6-ylamino)methyl)-5-trifluoromethoxyphenol]",81%,–
"O=[N+]([O-])c1cn2c(n1)OC[C@@H](NCc1ccc(OC(F)(F)F)cc1F)C2 [Compound 41a, (S)-N-(2-Fluoro-4-(trifluoromethoxy)benzyl)-2-nitro-6,7-dihydro-5H-imidazo[2,1-b][1,3]oxazin-6-amine]",81%,MIC99 [3]: 0.13 ± 0.06 µM
